Drawing on US8524702B2, “Substituted benzoazepines as toll-like receptor modulators” (VentiRx Pharmaceuticals, Inc., priority 2009, dated 2013), this text covers EC50 for 13 compounds.

This assay has as its target T1, TLR8 (Homo sapiens, UniProt Q9NR97).
T1 sequence (Q9NR97 27-1041): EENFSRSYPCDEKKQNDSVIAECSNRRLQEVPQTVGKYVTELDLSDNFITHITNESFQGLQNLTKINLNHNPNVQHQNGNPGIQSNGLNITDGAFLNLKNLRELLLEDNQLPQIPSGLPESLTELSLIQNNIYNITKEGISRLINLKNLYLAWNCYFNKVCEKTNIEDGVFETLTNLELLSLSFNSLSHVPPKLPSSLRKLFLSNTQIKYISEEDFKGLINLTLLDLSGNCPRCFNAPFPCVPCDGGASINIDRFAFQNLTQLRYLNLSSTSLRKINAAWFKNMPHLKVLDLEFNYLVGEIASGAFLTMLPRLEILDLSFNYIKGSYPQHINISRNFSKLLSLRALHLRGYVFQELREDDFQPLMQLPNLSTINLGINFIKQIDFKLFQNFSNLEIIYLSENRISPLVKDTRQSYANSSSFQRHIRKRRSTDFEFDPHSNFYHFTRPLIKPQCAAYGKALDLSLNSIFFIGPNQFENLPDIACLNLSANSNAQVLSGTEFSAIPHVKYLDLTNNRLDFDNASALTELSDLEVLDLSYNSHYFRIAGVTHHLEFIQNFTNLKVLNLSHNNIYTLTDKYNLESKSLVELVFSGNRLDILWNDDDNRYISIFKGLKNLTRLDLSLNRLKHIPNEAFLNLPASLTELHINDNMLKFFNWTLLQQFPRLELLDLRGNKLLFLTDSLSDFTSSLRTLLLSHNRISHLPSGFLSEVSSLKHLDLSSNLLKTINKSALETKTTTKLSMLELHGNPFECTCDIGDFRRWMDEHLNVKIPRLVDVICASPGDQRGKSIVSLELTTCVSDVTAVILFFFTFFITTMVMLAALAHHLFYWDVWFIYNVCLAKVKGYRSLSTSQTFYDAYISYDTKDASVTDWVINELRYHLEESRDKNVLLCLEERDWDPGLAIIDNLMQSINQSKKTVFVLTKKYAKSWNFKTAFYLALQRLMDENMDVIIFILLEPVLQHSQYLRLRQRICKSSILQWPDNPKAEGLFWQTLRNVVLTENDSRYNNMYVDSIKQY
As to the kind of experiment: PBMC assay for TLR8 (TNFα in supernatants by ELISA). The note with it: human PBMCs incubated with compound overnight, MC50 = concentration at which 50% of the maximum induction is seen. Set-up: Peripheral blood mononuclear cells (PBMCs) from human blood were isolated; endogenous in cells; host or cells: human PBMCs. In kind it is cell-based. The procedure: Peripheral blood mononuclear cells (PBMCs) from human blood were isolated using BD Vacutainer Cell Preparation Tubes with sodium citrate. Cells were incubated with compound overnight. TLR8 activity was assayed by measuring the amount of TNFα in supernatants by ELISA. TLR7 activity was assayed by measuring the amount of IFNα in supernatants by ELISA (R&D Systems). […] The results of this assay are shown below in Tables 2 and 3.
MC50 numbers are represented as factors of ten, for example, + indicates an MC50 value of ×10^4, or a value in the tens of thousands of nanomolar (nM range); ++ indicates an MC50 value of ×10^3, or a value in the thousands; +++ indicates an MC50 value of ×10^2, or a value in the hundreds; and ++++ indicates an MC50 value of ×10^1 or 10°, or a value in the tens or ones.

In the case of `CCCNC(=O)C1=Cc2ccc(-c3ccc(C(=O)N4CCCC4)cc3)cc2N=C(N)C1` [Compound 101, (1E,4E)-2-amino-N-propyl-8-(4-(pyrrolidine-1-carbonyl)phenyl)-3H-benzo[b]azepine-4-carboxamide], the EC50 lay in the range of 0.1 to 1 µM.

Regarding `CCCN(C(=O)C1=Cc2ccc(-c3ccc(C(=O)N4CCCC4)cc3)cc2N=C(N)C1)C(C)CC` (stereo not shown) [Compound 102, (1E,4E)-2-amino-N-sec-butyl-N-propyl-8-(4-(pyrrolidine-1-carbonyl)phenyl)-3H-benzo[b]azepine-4-carboxamide], the EC50 is 0.1 to 1 µM.

In the case of `CCCN(CCO)C(=O)C1=Cc2ccc(-c3ccc(C(=O)N4CCCC4)cc3)cc2N=C(N)C1` [Compound 107, (1E,4E)-2-amino-N-(2-hydroxyethyl)-N-propyl-8-(4-(pyrrolidine-1-carbonyl)phenyl)-3H-benzo[b]azepine-4-carboxamide], the EC50 is 0.001 to 0.1 µM.

For `CCCN(CC(O)CO)C(=O)C1=Cc2ccc(-c3ccc(C(=O)N4CCCC4)cc3)cc2N=C(N)C1` (stereo not shown) [Compound 110, (1E,4E)-2-amino-N-(2,3-dihydroxypropyl)-N-propyl-8-(4-(pyrrolidine-1-carbonyl)phenyl)-3H-benzo[b]azepine-4-carboxamide], the EC50 lay within 1 to 10 µM.

`NC1=Nc2cc(-c3ccc(C(=O)N4CCCC4)cc3)ccc2C=C(C(=O)N(C2CCNCC2)C2CC2)C1` [Compound 115, (1E,4E)-2-amino-N-cyclopropyl-N-(piperidin-4-yl)-8-(4-(pyrrolidine-1-carbonyl)phenyl)-3H-benzo[b]azepine-4-carboxamide]: the EC50 lay in the range of 1 to 10 µM.

Regarding `COCCN(CCOC)C(=O)C1=Cc2ccc(-c3ccc(C(=O)N4CCCC4)cc3)cc2N=C(N)C1` [Compound 120, (1E,4E)-2-amino-N,N-bis(2-methoxyethyl)-8-(4-(pyrrolidine-1-carbonyl)phenyl)-3H-benzo[b]azepine-4-carboxamide], the EC50 lay in the range of 1 to 10 µM.

Turning to `NC1=Nc2cc(-c3ccc(C(=O)N4CCCC4)cc3)ccc2C=C(C(=O)N2CCCC2)C1` [Compound 121, (4-((1E,4E)-2-amino-4-(pyrrolidine-1-carbonyl)-3H-benzo[b]azepin-8-yl)phenyl)(pyrrolidin-1-yl)methanone], the EC50 was in the range of 10 to 100 µM.

Take `NC1=Nc2cc(-c3ccc(C(=O)N4CCCC4)cc3)ccc2C=C(C(=O)N2CCCCC2)C1` [Compound 122, (4-((1E,4E)-2-amino-4-(piperidine-1-carbonyl)-3H-benzo[b]azepin-8-yl)phenyl)(pyrrolidin-1-yl)methanone]: the EC50 is 1 to 10 µM.

Turning to `CCCN(CCC)C(=O)C1=Cc2ccc(-c3ccc(C(=O)N4C[C@H](O)[C@@H](O)C4)cc3)cc2N=C(N)C1` [Compound 129, (1E,4E)-2-amino-8-(4-((3S,4S)-3,4-dihydroxypyrrolidine-1-carbonyl)phenyl)-N,N-dipropyl-3H-benzo[b]azepine-4-carboxamide], the concentration giving a half-maximal response (EC50) lay within 0.1 to 1 µM.

`CCCN(CCC)C(=O)C1=Cc2ccc(-c3ccc(C(=O)N4C[C@@H](O)[C@H](O)C4)cc3)cc2N=C(N)C1` [Compound 130, (1E,4E)-2-amino-8-(4-((3R,4R)-3,4-dihydroxypyrrolidine-1-carbonyl)phenyl)-N,N-dipropyl-3H-benzo[b]azepine-4-carboxamide]: the EC50 fell in the range of 0.1 to 1 µM.

On to `CCOC(=O)C1=Cc2ccc(-c3ccccn3)cc2N=C(N)C1` [Compound 141, (1E,4E)-ethyl 2-amino-8-(pyridin-2-yl)-3H-benzo[b]azepine-4-carboxylate], for which the EC50 was in the range of 0.1 to 1 µM.

Regarding `CCOC(=O)C1=Cc2ccc(-c3cccc(C#N)c3)cc2N=C(N)C1` [Compound 145, (1E,4E)-ethyl 2-amino-8-(3-cyanophenyl)-3H-benzo[b]azepine-4-carboxylate], the concentration giving a half-maximal response (EC50) was 0.001 to 0.1 µM.

Turning to `CCOC(=O)C1=Cc2ccc(-c3ccc(C#N)cc3)cc2N=C(N)C1` [Compound 146, (1E,4E)-ethyl 2-amino-8-(4-cyanophenyl)-3H-benzo[b]azepine-4-carboxylate], the EC50 fell in the range of 0.1 to 1 µM.
